Results reported in US20160339080A1, “METHODS AND PHARMACEUTICAL COMPOSITIONS FOR THE TREATMENT OF HEPATOCELLULAR CARCINOMAS” (INSERM (INSTITUT NATIONAL DE LA SANTÉ ET DE LA RECHERCHE …, priority 2014, published 2016).

System: SK-HEP-1 cells
Assay: SK-HEP-1 cell growth (trypan blue-excluding adherent cells counted) and apoptosis
Type: cell-based, human
Conditions: NSC-87877 50 μM with 1 μM orexin-A, 48 h
Protocol: FIG. 1. […] SK-HEP-1 cells were challenged with (black) or without (white) 1 μM orexin-A for 48 h in the absence (wo) or presence of NSC-87877 (50 μM). At the end of the treatment, adherent cells were trypsinized, and cells excluding trypan blue were counted to measure SK-HEP-1 cell growth. Panel B : Effect of orexin-A inoculation on the growth of tumors developed by xenografting human HCC cancer cells SK-HEP-1 in nude mice. SK-HEP-1 cells were inoculated in the flank of nude mice at day 0. Mice were 2 times a week injected intraperitoneally with 100 μL of orexin-A (0,23 μmol/kg) solutions starting at day 0 (white circle) or day 22 (triangle) or with […] of PBS (black circle) for controls.
Orexins are hypothalamic peptides involved in sleep/wake control. We have shown that orexins promote robust apoptosis in colorectal cancer cells (Voisin T, El Firar A, Fasseu M, Rouyer-Fessard C, Descatoire V, Walker F, Paradis V, Bedossa P, Henin D, Lehy T, Laburthe M. (2011) Aberrant expression of OX1 receptors for orexins in colon cancers and liver metastases: an openable gate to apoptosis. Cancer Res. 71:3341-51.). […]

With `O=S(=O)(O)c1ccc2cc(N=Nc3cc(S(=O)(=O)O)c4cccnc4c3O)ccc2c1` [NSC-87877] the “block of orexin-induced SK-HEP-1 growth inhibition” value was “blocks orexin-induced SK-HEP-1 growth inhibitory” and the “reversal of orexin-induced apoptosis” value was “reverse orexin-induced apoptosis”.
